Results as given in ChEMBL document CHEMBL6103637, “Additional Bioactive Silvestrol Analogs from the Roots of Aglaia perviridis Collected in Vietnam” (J Nat Prod, 2025).

How the values were obtained:
Format in all cases: functional, cell-based
MDA-MB-435 = assay: Cytotoxicity against human MDA-MB-435 cells assessed as inhibition of cell viability incubated for 72 hrs by CellTiter-blue cell viability assay; details: MDA-MB-435, 72 h
OVCAR-3 = assay: Cytotoxicity against human OVCAR-3 cells assessed as inhibition of cell viability incubated for 72 hrs by CellTiter-blue cell viability assay; details: OVCAR-3, 72 h
MDA-MB-231 = assay: Cytotoxicity against human MDA-MB-231 cells assessed as inhibition of cell viability incubated for 72 hrs by CellTiter-blue cell viability assay; details: MDA-MB-231, 72 h
HT-29 = assay: Cytotoxicity against human HT-29 cells assessed as inhibition of cell viability incubated for 72 hrs by CellTiter-blue cell viability assay; details: HT-29, 72 h

| SMILES | IC50 (MDA-MB-435) [nM] | IC50 (OVCAR-3) [nM] | IC50 (MDA-MB-231) [nM] | IC50 (HT-29) [nM] |
| --- | --- | --- | --- | --- |
| COC(=O)[C@H]1[C@@H](O)[C@@]2(O)c3c(OC)cc(O[C@@H]4O[C@@H]([C@H]5COC(C)(C)O5)CO[C@H]4OC)cc3O[C@@]2(c2ccc(OC)cc2)[C@@H]1c1ccccc1 | 31 | 37 | 260 | 20 |
| COC(=O)[C@H]1[C@@H](O)[C@@]2(O)c3c(OC)cc(O[C@@H]4O[C@@H]([C@@H](O)CO)CO[C@H]4OC)cc3O[C@@]2(c2ccc(OC)cc2)[C@@H]1c1ccccc1 [2'-EPISILVESTROL] | 2 | 2 | 2 | 3 |
| COC(=O)[C@H]1[C@@H](O)[C@@]2(O)c3c(OC)cc(O[C@@H]4O[C@@H]([C@@H]5COC(C)(C)O5)CO[C@H]4OC)cc3O[C@@]2(c2ccc(OC)cc2)[C@@H]1c1ccccc1 | 26 | 38 | 20 | 37 |
| CC(=O)O[C@H]1C(=O)[C@@]2(C)[C@H]([C@H](OC(=O)c3ccccc3)[C@]3(O)C[C@H](OC(=O)[C@H](O)[C@@H](NC(=O)c4ccccc4)c4ccccc4)C(C)=C1C3(C)C)[C@]1(OC(C)=O)CO[C@@H]1C[C@@H]2O [PACLITAXEL] | 5 | 12 | – | – |
| COC(=O)[C@H]1[C@@H](O)[C@@]2(O)c3c(OC)cc(O[C@@H]4O[C@@H]([C@H](O)CO)CO[C@@H]4OC)cc3O[C@@]2(c2ccc(OC)cc2)[C@@H]1c1ccccc1 | 250 | 210 | 240 | 370 |
| COC(=O)[C@H]1[C@@H](O)[C@@]2(O)c3c(OC)cc(O[C@@H]4O[C@@H]([C@@H](O)CO)CO[C@@H]4OC)cc3O[C@@]2(c2ccc(OC)cc2)[C@@H]1c1ccccc1 | 250 | 210 | 210 | 450 |
| COC(=O)[C@H]1[C@@H](O)[C@@]2(O)c3c(OC)cc(O[C@@H]4O[C@@H]([C@H](O)CO)CO[C@H]4OC)cc3O[C@@]2(c2ccc(OC)cc2)[C@@H]1c1ccccc1 [SILVESTROL] | 2 | 2 | 2 | 30 |
